# Ends that are not written are not given here.
# Tested on: cathepsins B, H, and S
# Settings: pH 5
row,Compound,Peptides detected on MALDI after digesting synthetic epitope with cathepsins
1,CC(C)C[C@H](NC(=O)[C@H](CCCCN)NC(=O)[C@H](CC(C)C)NC(=O)[C@@H](NC(=O)[C@H](CC(N)=O)NC(=O)[C@H](CCC(N)=O)NC(=O)[C@H](CCCCN)NC(=O)[C@@H](NC(=O)[C@H](Cc1ccc(O)cc1)NC(=O)[C@H](CCCCN)NC(=O)[C@@H]1CCCN1)C(C)C)[C@@H](C)O)C(=O)N[C@@H](C)C(=O)N[C@H](C(=O)O)[C@@H](C)O [HA(306–318)],PKYVKQNTLK (m/z 1218 Da)
2,NRERRGIALDGKIKHE [hSA(291–306)],NRERRGIALDGKIKHE (m/z 1892 Da) NRERRGIALDGKIK (m/z 1627 Da)

# — publication PMC4241505 (Nature communications, 2014)
